Assay results from US20110112133A1, “DIHYDRO PYRROLOQUINOLINE DERIVATIVES” (Takeda Pharmaceutical Company Limited, priority 2009, published 2011).
Where a name gives a salt, the structure may show the parent alone.

Experiments:
hNK2 receptor = target: T1, hNK2 receptor (Homo sapiens, UniProt P21452); experiment: Radioligand receptor binding inhibitory activity using membrane fraction of hNK2 receptor-expressing CHO cell ([125I]-NKA); details: for inhibition at 1 µM / inhibition at 0.1 µM / inhibition at 0.01 µM: read-out: hNK2 receptor binding inhibitory activity (inhibitory rate (%))
T1 construct: host or cells: CHO cells
T1 sequence (P21452 1-398): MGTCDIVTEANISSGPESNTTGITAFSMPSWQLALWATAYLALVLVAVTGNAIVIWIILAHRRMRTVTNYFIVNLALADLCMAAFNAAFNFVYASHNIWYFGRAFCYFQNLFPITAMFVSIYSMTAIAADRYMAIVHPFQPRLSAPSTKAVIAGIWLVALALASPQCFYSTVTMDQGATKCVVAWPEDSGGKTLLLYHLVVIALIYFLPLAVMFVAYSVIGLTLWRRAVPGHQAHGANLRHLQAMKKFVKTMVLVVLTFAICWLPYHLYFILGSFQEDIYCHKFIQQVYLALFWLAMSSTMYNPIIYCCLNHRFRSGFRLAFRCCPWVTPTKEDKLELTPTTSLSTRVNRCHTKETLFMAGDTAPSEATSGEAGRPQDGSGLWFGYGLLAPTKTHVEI
Protocol: Radioligand Receptor Binding Inhibitory Activity Using Membrane Fraction of hNK2 Receptor-Expressing CHO Cell
hNK2 receptor-expressing CHO cells (produced by EUROSCREEN) were cultured in a flask placed HAM-F12 medium containing 400 μg/mL Geneticin, 100 U/mL penicillin, 100 μg/mL streptomycin and 10% inactivated serum. The medium was removed and adhered cells were washed with PBS, and PBS containing 5 mM EDTA was added to detach the cells from the flask. The cells were recovered by centrifugation, suspended in suspending buffer A (15 mM Tris-HCl (pH 7.5), 12.5 mM MgCl2, 0.3 mM EDTA, 1 mM EGTA (Ethylene Glycol Bis(beta-aminoethylether)-N,N,N,N-tetraacetic Acid)), disrupted by POLYTRON homogenizer (manufactured by KINEMATICA) and centrifuged at 850×g for 10 min at 4° C. The supernatant was recovered and ultracentrifuged at 142000×g for 60 min at 4° C. The precipitated fraction was suspended in suspending buffer B (7.5 mM Tris-HCl (pH 7.5), 12.5 mM MgCl2, 0.3 mM EDTA, 1 mM EGTA, 250 mM sucrose), and cryopreserved (at −80° C.) as a membrane fraction preparation of hNK2 receptor-expressing CHO cell.
The radioligand receptor binding assay was performed in a 96 well microassay plate format with a final volume of 200 μL.
An assay buffer (50 μL, 50 mM Tris-HCl (pH 7.4), 0.02% bovine serum albumin, 2 μg/mL chymostatin, 40 μg/mL bacitracin, 40 μg/mL APMSF, 3 mM MnCl2) was added to a 96 well microassay plate. Thereto was added 50 μL of the above-mentioned cryopreserved membrane fraction preparation suspended in the assay buffer (20 μg/mL). An assay buffer (50 μL) containing 2% dimethyl sulfoxide was added to examine the total binding, 4 μM unlabeled NKA (produced by Peptide Institute, Inc.) solution (50 μL) diluted with an assay buffer containing 2% dimethyl sulfoxide was added to examine non-specific binding, and a test compound diluted with an assay buffer (50 μL, containing 2% dimethyl sulfoxide) was added. Furthermore, […] [^125I]-NKA (produced by NEN) solution (50 μL) was added to each well.
After reaction at room temperature for 30 min, using a cell harvester (manufactured by PerkinElmer), the reaction was stopped by rapid filtration on a unifilter plate (GF/C) (manufactured by PerkinElmer), which had been immersed in 0.3% aqueous polyethyleneimine solution for one day, and the cells were washed 10 times with 50 mM Tris-HCl (pH 7.4) buffer (250 μL) containing 0.02% bovine serum albumin. The GF/C filter plate was dried and 20 μL of MicroScinti-0 (manufactured by PerkinElmer) was added to each well and the radioactivity was measured by TopCount (manufactured by PerkinElmer).
Specific binding is shown by the value obtained by subtracting non-specific binding from the total binding. The binding inhibitory activity of the test compound is shown by the ratio of the value obtained by subtracting the measured value associated with the addition of the test compound from the total binding, to the value of the specific binding.

With `Cc1ccn(-c2ccc(C(=O)N[C@@H]3CCC(F)(F)C[C@@H]3C(=O)N3CCc4c(-c5ncc[nH]5)nc5ccc(F)cc5c43)cc2)n1` [Example 6, N-[(1R,2S)-4,4-difluoro-2-{[8-fluoro-4-(1H-imidazol-2-yl)-2,3-dihydro-1H-pyrrolo[3,2-c]quinolin-1-yl]carbonyl}cyclohexyl]-4-(3-methyl-1H-pyrazol-1-yl)benzamide hydrochloride] as the compound, how does the inhibition at 1 µM (hNK2 receptor; test compound 10^−6 M) read?
Its inhibition at 1 µM is 99.4%.

And the inhibition at 0.1 µM (hNK2 receptor; test compound 10^−7 M)?
Its inhibition at 0.1 µM is 99.4%.

And the inhibition at 0.01 µM (hNK2 receptor; test compound 10^−8 M)?
The inhibition at 0.01 µM was 96.1%.

Which “hNK2 receptor binding inhibitory activity (inhibitory rate (%))” value (hNK2 receptor; test compound 10^−6 M) does the source give for `Cc1ccn(-c2ccc(C(=O)N[C@@H]3CCC(F)(F)C[C@@H]3C(=O)N3CCc4c(-c5ccsc5)nc5ccccc5c43)cc2)n1.Cl` [Example 8] here?
The value was 100.7%.

What about the “hNK2 receptor binding inhibitory activity (inhibitory rate (%))” value (hNK2 receptor; test compound 10^−7 M) of the same compound?
The value was 100.2%.

What about the “hNK2 receptor binding inhibitory activity (inhibitory rate (%))” value (hNK2 receptor; test compound 10^−8 M) of the same compound?
The value was 98.5%.

For `Cc1ccn(-c2ccc(C(=O)N[C@@H]3CCC(F)(F)C[C@@H]3C(=O)N3CCc4c(-c5ccccc5)nc5ccc(F)cc5c43)cc2)n1.Cl` [Example 10, N-{(1R,2S)-4,4-difluoro-2-[(8-fluoro-4-phenyl-2,3-dihydro-1H-pyrrolo[3,2-c]quinolin-1-yl)carbonyl]cyclohexyl}-4-(3-methyl-1H-pyrazol-1-yl)benzamide hydrochloride], which “hNK2 receptor binding inhibitory activity (inhibitory rate (%))” value (hNK2 receptor; test compound 10^−6 M) is on record?
Its value is 99.9%.

What about the “hNK2 receptor binding inhibitory activity (inhibitory rate (%))” value (hNK2 receptor; test compound 10^−7 M) of the same compound?
Its value is 99.5%.

What about the “hNK2 receptor binding inhibitory activity (inhibitory rate (%))” value (hNK2 receptor; test compound 10^−8 M) of the same compound?
The value was 92.8%.

Which melting point does the source give for `Cc1ccn(-c2ccc(C(=O)N[C@@H]3CCC(F)(F)C[C@@H]3C(=O)N3CCc4c(-c5ncc[nH]5)nc5ccccc5c43)cc2)n1.Cl` [Example 12, N-[(1R,2S)-4,4-difluoro-2-{[4-(1H-imidazol-2-yl)-2,3-dihydro-1H-pyrrolo[3,2-c]quinolin-1-yl]carbonyl}cyclohexyl]-4-(3-methyl-1H-pyrazol-1-yl)benzamide hydrochloride] here?
The melting point was 232 °C.

And the inhibition at 1 µM (hNK2 receptor; test compound 10^−6 M)?
The inhibition at 1 µM was 101%.

And the inhibition at 0.1 µM (hNK2 receptor; test compound 10^−7 M)?
Its inhibition at 0.1 µM is 101%.

And the inhibition at 0.01 µM (hNK2 receptor; test compound 10^−8 M)?
Its inhibition at 0.01 µM is 99.8%.
